pEC50, pKi: −log10 of the molar value. “Also recorded” adds a separate entry of the source.
Key:
[1] = tested on: intestinal calcium transport; test: intestinal calcium transport, everted gut sac method, vitamin D-deficient rats; assay type: in vivo, rat; conditions: for intestinal calcium transport activity: vitamin D-deficient rats, in words, no dose named
Protocol: Intestinal calcium transport was evaluated in the same groups of animals using the everted gut sac method (FIG. 5).

[2] = serum calcium response in vitamin D-sufficient normal female rats on normal calcium diet; assay type: in vivo, rat; conditions: for serum calcium (hypercalcemia): 5000 pmol/day for 7 days, oral or intraperitoneal, normal female rats, 4 hours after last dose
Protocol: Serum calcium response in vitamin D-sufficient animals on a normal calcium diet. […] The doses were administered to two separate groups of animals by either the oral or intraperitoneal route, and serum calcium levels were assessed 4 hours after the last dose.

HL-60 cells = test: HL-60 cell differentiation into monocytes; assay type: cell-based; conditions: for pEC50: HL60 cells (FIG. 3)
Protocol: The differentiation of HL-60 promyelocytic into monocytes was determined as described by Ostrem et al (J. Biol. Chem. 262, 14164-14171, 1987).
VDR binding and HL60 cell differentiation.

[3] = tested on: calcium mobilization from bone; test: bone calcium mobilization in vitamin D-deficient rats on low calcium diet; assay type: in vivo, rat; conditions: for bone calcium mobilization activity: in words, no dose named
Protocol: Calcium mobilization from bone and intestinal calcium absorption in vitamin D-deficient animals. Using vitamin D-deficient rats on a low calcium diet (0.02%), the activities of these compounds in intestine and bone were tested.

[4] = molecular target: T1, full-length recombinant rat vitamin D receptor (Rattus norvegicus, UniProt P13053); test: competition with [3H]-1,25(OH)2D3 for binding to vitamin D receptor; conditions: full-length recombinant rat vitamin D receptor (FIG. 2)
T1 construct: the full-length recombinant rat vitamin D receptor
T1 sequence (P13053 1-423): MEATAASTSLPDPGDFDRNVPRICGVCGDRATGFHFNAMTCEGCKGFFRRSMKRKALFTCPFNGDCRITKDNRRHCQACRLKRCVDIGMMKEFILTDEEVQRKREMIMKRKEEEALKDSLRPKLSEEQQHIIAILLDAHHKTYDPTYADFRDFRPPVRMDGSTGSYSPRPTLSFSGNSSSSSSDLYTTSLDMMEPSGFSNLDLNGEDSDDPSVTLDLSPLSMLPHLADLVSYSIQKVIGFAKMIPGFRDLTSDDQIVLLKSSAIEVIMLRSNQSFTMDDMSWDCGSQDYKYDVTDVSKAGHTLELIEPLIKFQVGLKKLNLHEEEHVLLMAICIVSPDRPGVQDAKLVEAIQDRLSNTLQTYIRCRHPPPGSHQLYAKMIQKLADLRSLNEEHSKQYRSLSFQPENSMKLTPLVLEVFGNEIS

[5] = tested on: porcine intestinal vitamin D receptor; test: binding to porcine intestinal vitamin D receptor; conditions: compared to standard 1,25-(OH)2D3 (FIG. 2)
Description: The battery of in vitro and in vivo assays described in […] et al (J. Med.

SMILES | pKi [4] | calcemic activity from serum calcium after chronic doses ([2]; rats, chronic doses (FIG. 6), in words) | binding to the porcine receptor as compared to 1,25-(OH)2D3 [5] | pEC50 (HL-60 cells; Homo sapiens, HL-60) | intestinal calcium transport activity [1] | serum calcium (hypercalcemia) [2] | pEC50 (HL-60 cells) | mobilization of bone calcium ([3]; 260 pmol/day for 7 days) | intestinal calcium transport ([1]; 260 pmol/day) | serum calcium levels (bone calcium mobilization) ([3]; low calcium diet (0.02%), all dosages) | intestinal calcium transport ([1]; 1300 pmol/day (5-fold higher)) | intestinal calcium transport ([1]; doses higher than 1300 pmol/day) | mobilization of bone calcium ([3]; 1300 pmol/day (5-fold)) | bone calcium mobilization activity ([3]; low calcium diet (0.02%)) | potency on HL-60 differentiation compared to 1,25(OH)2D3 (HL-60 cells; in words, FIG. 3)
C[C@H](CCCC(C)(C)O)[C@H]1CC[C@H]2/C(=C/C=C3C[C@@H](O)C[C@H](O)C3)CCC[C@]12C [1,25(OH)2 19-nor-D3, 1α,25-dihydroxy-19-nor-vitamin D3, reference compound] | 9.70 | – | – | – | devoid of intestinal calcium transport activity | produced frank hypercalcemia | 8.40 | did not result in mobilization of bone calcium | – | – | – | – | – | – | –
C=C1/C(=C\C=C2/CCC[C@]3(C)[C@@H]([C@H](C)CCCC(C)(C)O)CC[C@@H]23)C[C@@H](O)C[C@@H]1O [1,25(OH)2D3, 1α,25-dihydroxyvitamin D3, reference compound] | – | – | – | – | – | – | 8.30 | – | promotes a significant increase | increased serum calcium levels at all dosages | – | – | – | – | –
C=C1[C@H](O)CC(=C/C=C2\CCC[C@]3(C)C(CC)CCC23)C[C@H]1O (stereo partly drawn) [2-Mpregna, 1α-hydroxy-2-methylene-19-nor-pregnacalciferol] | 9.52 | very little calcemic activity | bound equally well | 7.77 | very little activity | no increase in serum calcium | – | did not result in mobilization of bone calcium | do not promote intestinal calcium transport | – | do not promote intestinal calcium transport | – | without effect | very little bone calcium mobilization activity; also recorded: little, if any, activity | almost as potent as 1,25(OH)2D3

Continued, in another order:

pKi [4] | calcemic activity from serum calcium after chronic doses ([2]; rats, chronic doses (FIG. 6), in words) | binding to the porcine receptor as compared to 1,25-(OH)2D3 [5] | pEC50 (HL-60 cells; Homo sapiens, HL-60) | SMILES | intestinal calcium transport activity [1] | serum calcium (hypercalcemia) [2] | pEC50 (HL-60 cells) | mobilization of bone calcium ([3]; 260 pmol/day for 7 days) | intestinal calcium transport ([1]; 260 pmol/day) | serum calcium levels (bone calcium mobilization) ([3]; low calcium diet (0.02%), all dosages) | intestinal calcium transport ([1]; 1300 pmol/day (5-fold higher)) | intestinal calcium transport ([1]; doses higher than 1300 pmol/day) | mobilization of bone calcium ([3]; 1300 pmol/day (5-fold)) | bone calcium mobilization activity ([3]; low calcium diet (0.02%)) | potency on HL-60 differentiation compared to 1,25(OH)2D3 (HL-60 cells; in words, FIG. 3)
9.52 | – | – | – | C=C1C(O)CC(=CC=C2CCCC3(C)C2CCC3C(C)C)CC1O (stereo not drawn) [2-MP, 1α-hydroxy-2-methylene-19-nor-homopregnacalciferol] | – | – | 8.22 | did not result in mobilization of bone calcium | calcium transport activity equivalent to 1,25(OH)2D3 | – | calcium transport activity equivalent to 1,25(OH)2D3 | decreased this activity | without effect | little, if any, activity | –
9.22 | – | – | – | C=C1[C@H](O)CC(=C/C=C2\CCC[C@]3(C)[C@@H]([C@@H](C)CC)CC[C@@H]23)C[C@H]1O [2-MbisP, (20S)-1α-hydroxy-2-methylene-19-nor-bishomopregnacalciferol] | – | – | 8.15 | did not result in mobilization of bone calcium | do not promote intestinal calcium transport | – | do not promote intestinal calcium transport | – | without effect | little, if any, activity | –

— US6566352B1, “1 α-hydroxy-2-methylene-19-nor-pregnacalciferol and its uses” (Wisconsin Alumni Research Foudation, priority 2002, dated 2003)
